Assay results reported in patent publication US20250339426A1, “GCN2 MODULATOR FOR TREATING CANCER” (HIBERCELL, INC., priority 2022, published 2025).

Tests used:
[1] = test system: LoVo (human colorectal cancer cells); assay: In vivo tumor growth inhibition, LoVo xenograft; design: species or system BALB/c nude mice; settings: both 1 and 3 mg/kg twice daily oral
Description: (§1) LoVo (human colorectal cancer cells): Female 6-8 weeks old BALB/c nude mice were inoculated subcutaneously on the right flank with LoVo tumor cells (5×10^6) in 0.1 ml of EMEM medium without serum for tumor development. The treatments were started when the mean tumor size reached approximately 243 mm^3 at Day 16 post inoculation and continued until end of study by twice daily oral gavage dosing of HC-7366 at listed doses (vehicle, 0.3 mg/kg HC-7366, 1 mg/kg HC-7366, 3 mg/kg HC-7366, 10 mg/kg HC-7366, or 30 mg/kg HC-7366, FIGS. 8-9).
(§2) [formula] • 2.2.2 Tumor Measurements: The measurement of tumor size was conducted three times weekly with a caliper and recorded. The tumor volume (mm^3) was estimated using the formula: TV=a×b^2/2, where “a” and “b” is long and short diameters of a tumor, respectively. Tumor volume was calculated using the formula [tumor volume (mm^3)=π/6×length×width^2).
(§3) Regression was calculated using the formula=100×ΔT/T initial, if ΔT<0. Animals with 0 mm^3 tumor volume (no measurable tumor) for three consecutive measurements were considered as complete responders and animals with 50% tumor regressions were partial responders.

[2] = test system: Kasumi-1 (human AML cancer cells); assay: In vivo tumor growth inhibition, Kasumi-1 xenograft; design: species or system CB17 SCID mice
Description: Kasumi-1 (human AML cancer cells): Female 6-8 weeks old CB17 SCID mice were inoculated subcutaneously on the right flank with […] tumor cells (1×10^7) in RPMI 1640 without serum for tumor development. The treatments were started when the mean tumor size reached approximately 151 mm^3 at Day 29 after cell inoculation and continued until end of study by twice daily oral gavage dosing of HC-7366 at listed doses (vehicle, 3 mg/kg HC-7366, or 30 mg/kg HC-7366, FIG. 18).
as §2, §3

FaDu cells = assay: CTG viability assay, FaDu sgControl and sgGCN2 cells; type: cell-based, human; settings: 72 or 96 hr
Description: FaDu cells were obtained from ATCC (#HTB-43) and were cultured in Eagle's Minimum Essential Medium, Catalog No. 30-2003 at 37° C. and 5% CO2. FaDu GCN2 CRISPR knockout cells (sgGCN2) or control cells (sgControl) were generated. For viability experiments, cells were plated in 384-well cell culture plates and incubated overnight. Compounds were diluted in 10 concentrations by 3-fold dilution in 384pp-plate using TECAN EVO200 to a final concentration ranging from […]. The plates were incubated for 72 or 96 hr and viability was assessed by adding CellTiter-Glo® 2.0 Assay according to the manufacturer's protocol (Promega, G9243) to each well. The plates were then incubated at RT for 30 min. The luminescent signals were read by Envision (PerkinElmer) plate reader and analyzed by Prism

CTG-2229 = assay: Ex vivo AML PDX cell viability (Cell Titer Glo); type: cell-based; settings: Homo sapiens, 144 h; PDX model CTG-2229, 6 days; read-out: HC-7366 EC50
Description: (§4) . Cell viability was assayed after treating PDX models with DMSO or HC-7366 for 6 days using a plate-based luminescence assay (Cell Titer Glo). […]
(§5) EC50 values were calculated to the bottom of the curve and are provided below. Viability curves are provided for the models CTG-2229 (FIG. 81), CTG-3680 (FIG. 82), CTG-3667 (FIG. 83), CTG-2456 (FIG. 84), CTG-2457 (FIG. 85), and CTG-2454 (FIG. 86).

CTG-2235 = assay: Ex vivo AML PDX cell viability (Cell Titer Glo); type: cell-based; settings: Homo sapiens, 144 h; PDX model CTG-2235, 6 days; read-out: HC-7366 EC50
Description: as §4, §5

CTG-2238 = assay: Ex vivo AML PDX cell viability (Cell Titer Glo); type: cell-based; settings: Homo sapiens, 144 h; PDX model CTG-2238, 6 days; read-out: HC-7366 EC50
Description: as §4, §5

CTG-2239 = assay: Ex vivo AML PDX cell viability (Cell Titer Glo); type: cell-based; settings: Homo sapiens, 144 h; PDX model CTG-2239, 6 days; read-out: HC-7366 EC50
Description: as §4, §5

CTG-2456 = assay: Ex vivo AML PDX cell viability (Cell Titer Glo); type: cell-based; settings: Homo sapiens, 144 h; PDX model CTG-2456, 6 days; read-out: HC-7366 EC50
Description: as §4, §5

CTG-2775 = assay: Ex vivo AML PDX cell viability (Cell Titer Glo); type: cell-based; settings: Homo sapiens, 144 h; PDX model CTG-2775, 6 days; read-out: HC-7366 EC50
Description: as §4, §5

CTG-3438 = assay: Ex vivo AML PDX cell viability (Cell Titer Glo); type: cell-based; settings: Homo sapiens, 144 h; PDX model CTG-3438, 6 days; read-out: HC-7366 EC50
Description: as §4, §5

CTG-3440 = assay: Ex vivo AML PDX cell viability (Cell Titer Glo); type: cell-based; settings: Homo sapiens, 144 h; PDX model CTG-3440, 6 days; read-out: HC-7366 EC50
Description: as §4, §5

CTG-3441 = assay: Ex vivo AML PDX cell viability (Cell Titer Glo); type: cell-based; settings: Homo sapiens, 144 h; PDX model CTG-3441, 6 days; read-out: HC-7366 EC50
Description: as §4, §5

[3] = test system: upstream regulators of differentially expressed genes in DLD-1 tumors; assay: RNAseq analysis of DLD-1 tumors; type: in vivo, mice
Description: as §1, with “DLD-1” for “LoVo”, “RPMI1640” for “EMEM”, “195” for “243”, “7” for “16”, “FIG. 10). For the time course study, tumors were harvested at Days 4, 7 and 14. Tumors were then used for IHC and RNAseq experiments (see Example 21).” for “FIGS. 8-9).”
DLD-1 tumor bearing mice were treated with HC-7366 at 0.3, 1, 3, 10 and 30 mg/kg twice a day for 14 days. Tumors were harvested for RNAseq analysis at Day 4, Day 7 and Day 14 (FIG. 128).

## CNC(=O)c1ncn2cc(-c3c(F)ccc(NS(=O)(=O)c4cc(Cl)cnc4OC)c3F)ncc12 [HC-7366, 6-(3-((5-chloro-2-methoxypyridine)-3-sulfonamido)-2,6-difluorophenyl)-N-methylimidazo[1,5-a]pyrazine-1-carboxamide]
[1]
  tumor growth inhibition: 94%
[2]; 3 mg/kg twice daily oral
  TGI: 73%
[2]; 30 mg/kg twice daily oral
  TGI: 77%
FaDu cells; FaDu control cells
  viability: potently reduced viability
FaDu cells; GCN2 CRISPR knockout cells
  viability response: reversed
CTG-2229
  EC50: 34 µM
CTG-2235
  EC50: 103 µM
CTG-2238
  EC50: 123 µM
CTG-2239
  EC50: 1170 µM
CTG-2456
  EC50: 31.8 µM
CTG-2775
  EC50: 43.4 µM
CTG-3438
  EC50: 196 µM
CTG-3440
  EC50: 55.2 µM
CTG-3441
  EC50: 102 µM
[3]; 0.3-30 mg/kg twice a day
  HIF1α, SMAD4 and E2F1 signature: reduction
[3]; all doses (0.3-30 mg/kg twice a day)
  ATF4 (upstream regulator of differentially expressed genes): significantly induced
